Measured values from patent US9776997B2, “3-aryl-substituted imidazo[1,2-A]pyridines and their use” (Bayer Pharma Aktiengesellschaft, priority 2013, dated 2017).
Values joined by “and” are separate entries in the source; they are usually repeats but may differ in a detail not shown here. Equal entries are not always repeated.

Target: T1, recombinant guanylate cyclase reporter cell line (Rattus norvegicus, UniProt P19686+P20595)
T1 construct: expressed in transfected cells; host or cells: recombinant reporter cell line
T1 sequence (P19686 1-690): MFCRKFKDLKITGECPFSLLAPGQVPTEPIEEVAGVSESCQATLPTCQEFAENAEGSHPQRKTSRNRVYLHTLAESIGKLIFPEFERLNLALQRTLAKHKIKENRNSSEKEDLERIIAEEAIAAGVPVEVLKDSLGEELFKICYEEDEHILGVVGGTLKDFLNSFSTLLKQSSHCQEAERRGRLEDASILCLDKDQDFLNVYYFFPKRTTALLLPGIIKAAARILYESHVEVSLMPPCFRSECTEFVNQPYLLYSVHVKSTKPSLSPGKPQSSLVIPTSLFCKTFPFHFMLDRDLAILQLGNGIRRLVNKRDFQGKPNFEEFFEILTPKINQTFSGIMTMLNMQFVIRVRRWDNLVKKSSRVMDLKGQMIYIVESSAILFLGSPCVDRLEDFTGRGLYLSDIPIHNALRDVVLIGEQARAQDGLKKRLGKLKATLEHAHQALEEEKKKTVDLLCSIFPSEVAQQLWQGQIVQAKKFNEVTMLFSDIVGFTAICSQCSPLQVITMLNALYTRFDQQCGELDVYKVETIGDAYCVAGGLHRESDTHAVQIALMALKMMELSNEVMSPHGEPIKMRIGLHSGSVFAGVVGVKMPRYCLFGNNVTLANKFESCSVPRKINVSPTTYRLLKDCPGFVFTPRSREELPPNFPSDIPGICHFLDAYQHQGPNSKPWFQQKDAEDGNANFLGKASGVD
T1 sequence (P20595 1-619): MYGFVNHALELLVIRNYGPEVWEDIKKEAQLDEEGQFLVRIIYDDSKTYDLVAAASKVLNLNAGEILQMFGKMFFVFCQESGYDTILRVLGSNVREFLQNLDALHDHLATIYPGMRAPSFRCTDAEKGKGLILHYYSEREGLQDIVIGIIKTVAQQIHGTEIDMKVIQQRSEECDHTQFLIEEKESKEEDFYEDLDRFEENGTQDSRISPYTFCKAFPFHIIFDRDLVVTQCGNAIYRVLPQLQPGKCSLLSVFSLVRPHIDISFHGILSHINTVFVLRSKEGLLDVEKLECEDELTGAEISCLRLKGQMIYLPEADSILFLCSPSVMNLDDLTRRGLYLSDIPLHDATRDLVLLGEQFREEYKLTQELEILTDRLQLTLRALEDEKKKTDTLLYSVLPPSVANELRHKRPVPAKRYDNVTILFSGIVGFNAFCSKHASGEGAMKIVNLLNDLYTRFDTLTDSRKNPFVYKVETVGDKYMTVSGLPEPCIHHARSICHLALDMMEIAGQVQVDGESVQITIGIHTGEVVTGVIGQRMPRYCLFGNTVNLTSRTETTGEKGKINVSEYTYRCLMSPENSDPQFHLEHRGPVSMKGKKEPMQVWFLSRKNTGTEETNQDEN
Assay: Effect on a recombinant guanylate cyclase reporter cell line
Assay type: cell-based
Conditions: MEC = minimum effective concentration; in some cases mean values for individual determinations
Procedure: B-2. Effect on a Recombinant Guanylate Cyclase Reporter Cell Line
The cellular effect of the inventive compounds is determined using a recombinant guanylate cyclase reporter cell line, as described in F. Wunder et al., Anal. Biochem. 339, 104-112 (2005).
Representative MEC values (MEC=minimum effective concentration) for the inventive compounds are shown in the table below (in some cases as mean values for individual determinations): […]

| Compound | MEC |
| --- | --- |
| Cc1cc(OCc2c(F)cccc2F)c2nc(C)c(-c3cnn(CCc4c(C)n[nH]c4C)c3)n2c1 [Example 99, 8-[(2,6-Difluorobenzyl)oxy]-3-{1-[2-(3,5-dimethyl-1H-pyrazol-4-yl)ethyl]-1H-pyrazol-4-yl}-2,6-dimethylimidazo[1,2-a]pyridine] | 0.03 µM and 0.1 µM |
| Cc1cc(OCc2c(F)cccc2F)c2nc(C)c(-c3cnn(CCCC#N)c3)n2c1 [Example 100, 4-(4-{8-[(2,6-Difluorobenzyl)oxy]-2,6-dimethylimidazo[1,2-a]pyridin-3-yl}-1H-pyrazol-1-yl)butanonitrile] | 0.03 µM |
| Cc1cc(OCc2c(F)cccc2F)c2nc(C)c(-c3cnn(CCCc4nnn[nH]4)c3)n2c1 [Example 101, 8-[(2,6-Difluorobenzyl)oxy]-2,6-dimethyl-3-{1-[3-(1H-tetrazol-5-yl)propyl]-1H-pyrazol-4-yl}imidazo[1,2-a]pyridine] | 0.1 µM |
| COC(=O)CCn1cc(-c2c(C)nc3c(OCc4c(F)cccc4F)cc(C)cn23)cn1 [Example 102, Methyl 3-(4-{8-[(2,6-difluorobenzyl)oxy]-2,6-dimethylimidazo[1,2-a]pyridin-3-yl}-1H-pyrazol-1-yl)propanoate] | 0.1 µM |
| COC(=O)Cn1cc(-c2c(C)nc3c(OCc4c(F)cccc4F)cc(C)cn23)cn1 [Example 103, methyl (4-{8-[(2,6-difluorobenzyl)oxy]-2,6-dimethylimidazo[1,2-a]pyridin-3-yl}-1H-pyrazol-1-yl)acetate] | 0.03 µM |
| COC(=O)C(C)n1cc(-c2c(C)nc3c(OCc4c(F)cccc4F)cc(C)cn23)cn1 (centres unmarked) [Example 104] | 0.3 µM |
| COC(=O)CC(C)n1cc(-c2c(C)nc3c(OCc4c(F)cccc4F)cc(C)cn23)cn1 (centres unmarked) [Example 105] | 0.01 µM |
| COC(=O)C1CC1n1cc(-c2c(C)nc3c(OCc4c(F)cccc4F)cc(C)cn23)cn1 (centres unmarked) [Example 106] | 0.3 µM |
| Cc1cc(OCc2c(F)cccc2F)c2nc(C)c(-c3cnn(CCC(=O)O)c3)n2c1 [Example 107, 3-(4-{8-[(2,6-Difluorobenzyl)oxy]-2,6-dimethylimidazo[1,2-a]pyridin-3-yl}-1H-pyrazol-1-yl)propanoic acid] | 0.065 µM |
| Cc1cc(OCc2c(F)cccc2F)c2nc(C)c(-c3cnn(CC(=O)O)c3)n2c1 [Example 108, (4-{8-[(2,6-difluorobenzyl)oxy]-2,6-dimethylimidazo[1,2-a]pyridin-3-yl}-1H-pyrazol-1-yl)acetic acid] | 0.3 µM |
| Cc1cc(OCc2c(F)cccc2F)c2nc(C)c(-c3cnn(C(C)C(=O)O)c3)n2c1 (centres unmarked) [Example 109] | 0.3 µM |
| Cc1cc(OCc2c(F)cccc2F)c2nc(C)c(-c3cnn(C4CC4C(=O)O)c3)n2c1 (centres unmarked) [Example 111] | 1.0 µM |
| Cc1cc(OCc2c(F)cccc2F)c2nc(C)c(-c3cnn(CC(=O)NC4CC4)c3)n2c1 [Example 113, N-Cyclopropyl-2-(4-{8-[(2,6-difluorobenzyl)oxy]-2,6-dimethylimidazo[1,2-a]pyridin-3-yl}-1H-pyrazol-1-yl)acetamide] | 0.03 µM |
| Cc1cc(OCc2c(F)cccc2F)c2nc(C)c(-c3cnn(CCC(=O)NC4CC4)c3)n2c1 [Example 114, N-Cyclopropyl-3-(4-{8-[(2,6-difluorobenzyl)oxy]-2,6-dimethylimidazo[1,2-a]pyridin-3-yl}-1H-pyrazol-1-yl)propanamide] | 0.3 µM |
| Cc1cc(OCc2c(F)cccc2F)c2nc(C)c(-c3cnn(CC(N)=O)c3)n2c1 [Example 115, 2-(4-{8-[(2,6-Difluorobenzyl)oxy]-2,6-dimethylimidazo[1,2-a]pyridin-3-yl}-1H-pyrazol-1-yl)acetamide] | 0.1 µM |
| Cc1cc(OCc2c(F)cccc2F)c2nc(C)c(-c3cnn(CC(C)(C)O)c3)n2c1 [Example 116, 1-(4-{8-[(2,6-Difluorobenzyl)oxy]-2,6-dimethylimidazo[1,2-a]pyridin-3-yl}-1H-pyrazol-1-yl)-2-methylpropan-2-ol] | 0.01 µM |
| Cc1cc(OCc2c(F)cccc2F)c2nc(C)c(-c3cnn(CC(C)(C)N)c3)n2c1.Cl [Example 117, 1-(4-{8-[(2,6-Difluorobenzyl)oxy]-2,6-dimethylimidazo[1,2-a]pyridin-3-yl}-1H-pyrazol-1-yl)-2-methylpropan-2-amine hydrochloride] | 0.1 µM |
| Cc1cc(OCc2c(F)cccc2F)c2nc(C)c(-c3cnn(CCN4CCOCC4)c3)n2c1 [Example 118, 8-[(2,6-Difluorobenzyl)oxy]-2,6-dimethyl-3-{1-[2-(morpholin-4-yl)ethyl]-1H-pyrazol-4-yl}imidazo[1,2-a]pyridine] | 0.03 µM |
| Cc1nc2c(OCc3c(F)cccc3F)cccn2c1-c1cnn(CCN2CCOCC2)c1 [Example 119] | 0.1 µM |
| Cc1cc(OCc2c(F)cccc2F)c2nc(C)c(-c3cccc(CN4CCN(C)CC4)c3)n2c1 [Example 120] | 0.3 µM |
| Cc1nc2c(OCc3c(F)cccc3F)cccn2c1-c1cnn(-c2cccnc2)c1 [Example 121] | 1.0 µM |
| Cc1nc2c(OCc3c(F)cccc3F)cccn2c1-c1cnn(-c2cncc(F)c2)c1 [Example 122] | 3.0 µM |
| Cc1nc2c(OCc3c(F)cccc3F)cccn2c1-c1cnn(-c2ccc(F)cc2)c1 [Example 123, 8-[(2,6-Difluorobenzyl)oxy]-3-[1-(4-fluorophenyl)-1H-pyrazol-4-yl]-2-methylimidazo[1,2-a]pyridine] | 0.3 µM |
| Cc1nc2c(OCc3c(F)cccc3F)cccn2c1-c1nc(N)n[nH]1 [Example 124, 5-{8-[(2,6-Difluorobenzyl)oxy]-2-methylimidazo[1,2-a]pyridin-3-yl}-1H-1,2,4-triazol-3-amine] | 3.0 µM |
| Cc1nc2c(OCc3c(F)cccc3F)cccn2c1-c1nc(N)n(CC(F)(F)F)n1 [Example 125, 3-{8-[(2,6-Difluorobenzyl)oxy]-2-methylimidazo[1,2-a]pyridin-3-yl}-1-(2,2,2-trifluoroethyl)-1H-1,2,4-triazol-5-amine] | 3.0 µM |
| Cc1cc(OCc2c(F)cccc2F)c2nc(C)c(-c3n[nH]c(C(F)(F)F)n3)n2c1 [Example 126, 8-[(2,6-Difluorobenzyl)oxy]-2,6-dimethyl-3-[5-(trifluoromethyl)-1H-1,2,4-triazol-3-yl]imidazo[1,2-a]pyridine] | 3.0 µM |
| Cc1cc(OCc2c(F)cccc2F)c2nc(C)c(-c3cn(CC(C)(C)N)nc3C)n2c1.O=CO [Example 127, 1-(4-{8-[(2,6-Difluorobenzyl)oxy]-2,6-dimethylimidazo[1,2-a]pyridin-3-yl}-3-methyl-1H-pyrazol-1-yl)-2-methylpropan-2-amine formate] | 0.3 µM |
| Cc1cc(OCc2c(F)cccc2F)c2nc(C)c(-c3nc[nH]n3)n2c1 [Example 128, 8-[(2,6-Difluorobenzyl)oxy]-2,6-dimethyl-3-(1H-1,2,4-triazol-3-yl)imidazo[1,2-a]pyridine] | 1.0 µM |
| Cc1cc(OCc2c(F)cccc2F)c2nc(C)c(-c3ncn(CC(C)(C)N)n3)n2c1 [Example 129, 1-(3-{8-[(2,6-Difluorobenzyl)oxy]-2,6-dimethylimidazo[1,2-a]pyridin-3-yl}-1H-1,2,4-triazol-1-yl)-2-methylpropan-2-amine] | 1.0 µM |
